# Several values for one entry are separate records, joined by “and”; a condition that tells them apart may be missing. Equal values may be shown once.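 These data come from cells grown in 96-well plates and exposed to compound for 48 hours at five concentrations. GI50 is the concentration that inhibits growth by half. TGI marks complete inhibition of growth.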
# Experiments:
# Test in all cases: NCI anticancer screen, dose series, 48 h
# RXF 393 renal = test system: RXF 393 renal
# NCI-H460 lung = test system: NCI-H460 lung
# NCI-H522 lung = test system: NCI-H522 lung
# U251 CNS = test system: U251 CNS
# SF-268 CNS = test system: SF-268 CNS
# A498 renal = test system: A498 renal
# 786-0 renal = test system: 786-0 renal
# TK-10 renal = test system: TK-10 renal
# IGROV1 ovarian = test system: IGROV1 ovarian
# SNB-75 CNS = test system: SNB-75 CNS
Compound,TGI (RXF 393 renal),TGI (NCI-H460 lung),TGI (NCI-H522 lung),TGI (U251 CNS),TGI (SF-268 CNS),TGI (A498 renal),TGI (786-0 renal),TGI (TK-10 renal),TGI (IGROV1 ovarian),TGI (SNB-75 CNS),GI50 (RXF 393 renal),GI50 (NCI-H460 lung),GI50 (NCI-H522 lung),GI50 (U251 CNS),GI50 (SF-268 CNS),GI50 (A498 renal),GI50 (786-0 renal),GI50 (TK-10 renal),GI50 (IGROV1 ovarian),GI50 (SNB-75 CNS)
c1ccc(CC(Nc2cccnc2)c2ccccc2)cc1 (stereo unspecified),51.2 µM,52.9 µM,60.4 µM,42 µM,> 100 µM,> 100 µM,54.4 µM,94.9 µM,> 100 µM,60.1 µM,,,,,,,,,,
[CH3][Hg]/[N]=C(/N)NC#N,5.13 µM,88.7 µM,2.57 µM,56 µM,33.3 µM,31.7 µM,22.4 µM,14.8 µM,36.6 µM,24.4 µM,1.4 µM,25 µM,1.29 µM,23.6 µM,16.3 µM,17.7 µM,10.2 µM,3.35 µM,18.9 µM,12.1 µM
Cc1cnc(-c2ccc(-c3ccc(NC(=O)Nc4c(F)cc(F)cc4F)cc3F)c3c2C(=O)NC3)[nH]1,3.6 µM and 5.58 µM,2.75 µM,3.69 µM and 3.95 µM,1.85 µM and 2.51 µM,20.6 µM and 22.9 µM,24.3 µM and 14.9 µM,2.86 µM,7.67 µM and 17.6 µM,6.63 µM and 18.8 µM,10.9 µM,1.15 µM and 1.32 µM,0.989 µM,1.12 µM and 1.2 µM,0.433 µM and 0.926 µM,1.17 µM and 3.25 µM,6.48 µM and 2.13 µM,1.25 µM,2.06 µM and 5.43 µM,0.824 µM and 1.31 µM,2.96 µM
COc1cc(C)[nH]c(=O)c1CNC(=O)c1c(C)n([C@H](C)C2CCN(CC(F)(F)F)CC2)c2ccccc12,99.5 µM,> 100 µM,> 100 µM,> 100 µM,> 100 µM,> 100 µM,> 100 µM,> 100 µM,> 100 µM,> 100 µM,21.7 µM,42.9 µM,80.3 µM,90.6 µM,80.6 µM,28.2 µM,60.3 µM,88.5 µM,49.2 µM,36.1 µM
CC(=O)N[C@@H](Cc1ccc(OP(=O)(O)O)cc1)C(=O)N[C@H]1CCC(=O)N2CCC[C@@H](C(=O)NC3CCc4ccccc43)N2C1=O (stereo partly specified),> 25 µM,> 25 µM,> 25 µM,> 25 µM,> 25 µM,> 25 µM,> 25 µM,> 25 µM,> 25 µM,> 25 µM,> 25 µM,> 25 µM,> 25 µM,> 25 µM,> 25 µM,> 25 µM,> 25 µM,> 25 µM,> 25 µM,> 25 µM
Nc1n[nH]c2ccc([C@@H]3Nc4ccc5cn[nH]c5c4[C@H]4C5CCC(C5)[C@@H]34)cc12 (stereo partly specified),0.724 µM,> 100 µM,54.6 µM,> 100 µM,> 100 µM,0.777 µM,98.6 µM,> 100 µM,62.2 µM,3.59 µM,0.236 µM,0.382 µM,0.385 µM,0.436 µM,2.59 µM,0.181 µM,0.95 µM,15.1 µM,0.579 µM,0.171 µM
CC(=O)ON=C1C=CC(=C(C#N)c2ccccc2)C=C1,11.5 µM,,2.48 µM,10.5 µM,6.33 µM,47 µM,14.1 µM,9.9 µM,6.9 µM,13.7 µM,2.68 µM,1.51 µM,0.383 µM,0.622 µM,1.21 µM,12.6 µM,1.19 µM,2.58 µM,1 µM,2 µM
Fc1ccc(N=C2C=CC(=Nc3ccc(F)cc3)c3ccccc32)cc1,> 100 µM,> 100 µM,> 100 µM,> 100 µM,> 100 µM,> 100 µM,> 100 µM,> 100 µM,> 100 µM,> 100 µM,,,,,,,,,,
Cc1cc(C)c2c(c1)N(C)c1ncnc(-n3cnc4cc(C)ccc43)c1CC2C (stereo unspecified),9.06 µM,11.4 µM,6.53 µM,19.4 µM,> 100 µM,6.21 µM,15.4 µM,> 100 µM,> 100 µM,13.2 µM,2.66 µM,3.4 µM,2.07 µM,3.55 µM,6.04 µM,1.41 µM,3.53 µM,7.37 µM,5.46 µM,2.8 µM
COC(=O)Nc1nc2ccc(C(=O)c3ccc(F)cc3)cc2[nH]1,> 100 µM,> 100 µM,,6.68 µM,7.65 µM,4.47 µM,7.83 µM,58.3 µM,> 66.1 µM,12.4 µM,0.763 µM,0.336 µM,0.311 µM,0.287 µM,0.644 µM,0.403 µM,0.578 µM,1.72 µM,0.513 µM,0.205 µM
Cn1c(=O)c(Oc2ccc(F)cc2F)cc2cnc(NCC(C)(C)O)nc21,> 25 µM,> 25 µM,> 25 µM,> 25 µM,> 25 µM,> 25 µM,> 25 µM,> 25 µM,> 25 µM,> 25 µM,> 25 µM,> 25 µM,> 25 µM,> 25 µM,> 25 µM,> 25 µM,> 25 µM,> 25 µM,> 25 µM,> 25 µM
COc1cc2c(cc1OCCCN1CCN(C(=S)SCCC(C#N)(c3ccccc3)c3ccccc3)CC1)N=C[C@@H]1CCCN1C2=O,0.36 µM,,2.43 µM,1.43 µM,,2.32 µM,1.08 µM,2.87 µM,1.74 µM,2.9 µM,0.192 µM,0.891 µM,0.523 µM,0.405 µM,0.386 µM,1 µM,0.493 µM,1.09 µM,0.381 µM,1.31 µM

# — PubChem BioAssay (NCI)
